Experimental data as given in paper PMC4460186, “Fast and reliable production, purification and characterization of heat-stable, bifunctional enzyme chimeras” (AMB Express, 2015).

What was measured:
CB = system: T1, CB; experiment: 4-nitrophenol release, absorbance at […] nm; format: biochemical, uncultured archaeon; conditions: 10 mM NaPO4 pH 7.0, 80°C (standard assay); read-out: Substrate, 4-NP-β-D-GP / KM
T1 construct: gene bgl1; single-polypeptide fusion HIS-Cel5A-Bgl1-STREP, Ser-Ser linker, tags kept; from E. coli M15[pREP4]; truncated STREP-tagged Bgl1 degradation products remain in eluate; with Endoglucanase

BC = system: T2, BC; experiment: 4-nitrophenol release, absorbance at […] nm; format: biochemical, uncultured archaeon; conditions: 10 mM NaPO4 pH 7.0, 80°C (standard assay); read-out: Substrate, 4-NP-β-D-GP / KM
T2 construct: gene bgl1; single-polypeptide fusion HIS-Bgl1-Cel5A-STREP, Ser-Ser linker, tags kept; from E. coli M15[pREP4]; with Endoglucanase

Km (CB): 530 µM | Km (BC): 530 µM
Compound: O=[N+]([O-])c1ccc(O[C@@H]2O[C@H](CO)[C@@H](O)[C@H](O)[C@H]2O)cc1 [4-NP-β-D-GP, 4-nitrophenyl-β-D-glucopyranoside]
